Laboratory results as given in patent US5108997A, “Cephem compounds” (Fujisawa Pharmaceuticals Co., Ltd., priority 1986, dated 1992).
Values after ≈ are worked out from the molar mass of the structure shown.

System: P. vulgaris 49
Test: In vitro antibacterial activity, two-fold agar-plate dilution method (MIC)
Format: cell-based
Conditions: Proteus vulgaris, HI-agar, 10^6 viable cells per ml, 37° C. for 20 hours, read-out: MIC (minimal inhibitory concentration)
Experimental: Now in order to show the utility of the object compounds [I], the test data on MIC (minimal inhibitory concentration) of representative compounds [I] of this invention are shown in the following.
In vitro antibacterial activity was determined by the two-fold agar-plate dilution method as described below.
One loopful of an overnight culture of each test strain in Trypticase-soy broth (10^6 viable cells per ml) was streaked on heart infusion agar (HI-agar) containing graded concentrations of representative test compound, and the minimal inhibitory concentration (MIC) was expressed in terms of μg/ml after incubation at 37° C. for 20 hours.

Row | MIC [µg/mL] | SMILES
1 | 0.2 (≈ 0.372 µM) | Cn1c(N)cc[n+]1CC1=C(C(=O)[O-])N2C(=O)C(NC(=O)C(=NOCC(=O)O)c3nsc(N)n3)C2SC1 (stereo not drawn) [Compound A, 7β-[2-(5-Amino-1,2,4-thiadiazol-3-yl)-2-carboxymethoxyiminoacetamido]-3-(3-amino-2-methyl-1-pyrazolio)methyl-3-cephem-4-carboxylate (syn isomer)]
2 | 0.2 (≈ 0.354 µM) | Cn1c(NC=O)cc[n+]1CC1=C(C(=O)[O-])N2C(=O)C(NC(=O)C(=NOCC(=O)O)c3nsc(N)n3)C2SC1 (stereo not drawn) [Compound B, 7β-[2-(5-Amino-1,2,4-thiadiazol-3-yl)-2-carboxymethoxyiminoacetamide]-3-(3-formamido-2-methyl-1-pyrazolio)methyl-3-cephem-4-carboxylate (syn isomer)]
3 | 0.1 (≈ 0.177 µM) | Cn1c(N)cc[n+]1CC1=C(C(=O)[O-])N2C(=O)C(NC(=O)C(=NOC(C)(C)C(=O)O)c3nsc(N)n3)C2SC1 (stereo not drawn) [Compound C, 7β-[2-(5-Amino-1,2,4-thiadiazol-3-yl)-2-(1-carboxyl-1-methylethoxyimino)acetamido]-3-(3-amino-2-methyl-1-pyrazolio)methyl-3-cephem-4-carboxylate(syn isomer)]
